Measurements: patent publication US20130017272A1, “METHOD FOR TREATING NON-SMALL CELL LUNG CANCER” (priority 2011, published 2013)
Where two headings read alike, the source gives them in different places. Strand notation (5' to 3'): a small letter for the sugar, then the base; units joined by * are phosphorothioate-linked, units joined directly phosphodiester-linked; [ ] holds rarer units or linkages, { } end groups; capitals alone tell only the bases. e = 2'-O-(2-methoxyethyl) (MOE); [5mC] = 5-methylcytosine; d = 2'-deoxy (DNA)

Key:
[1] = test system: cancerous human prostate, breast, ovarian, lung, renal, bladder, and melanoma cells; settings: broad range of studies (Miyake et al. 2005); cited from earlier work
[2] = test system: stage IIIB or IV NSCLC; test: Phase 1-2 study of weekly custirsen plus a gemcitabine/platinum-based regimen: survival by baseline serum clusterin; assay type: in vivo, human
Method: The relationship between serum clusterin levels and the duration of individual survival was evaluated during a phase 1-2 study of weekly custirsen plus a gemcitabine/platinum-based regimen in patients with stage IIIB or IV NSCLC. Not all of the patients in this study had baseline levels of clusterin measured. However, starting with N=69 subjects with measured baseline clusterin levels, fitting the Cox proportional hazards (PH) model with baseline clusterin as sole predictor gives p=0.10; the coefficient is positive, so that higher clusterin is associated with increased survival risk. Among the N=55 subjects who also had post-baseline data collected, fitting the same PH model gives p=0.05, again with positive coefficient.
A careful search for possible cutpoints, using all N=69 subjects with baseline clusterin levels, produced 71 μg/mL as a strong candidate.
Among all N=69 subjects with a baseline clusterin level, there were […] with clusterin ≦71 μg/mL (median survival time was 18.8 months), and N=26 subjects with baseline clusterin >71 μg/mL (median survival time was 10.2 months); the log-rank p-value=0.004. Removing the N=14 early discontinuers leaves N=35 subjects with baseline clusterin ≦71 μg/mL (median survival time was 28.7 months), and N=20 subjects with baseline clusterin >71 μg/mL (median survival time was 12.2 months); the log-rank p-value=0.0002.

[3] = in vivo
Method: Three doses of 640 mg custirsen are administered IV during the Loading Dose Period (Days −9 to −1). There is at least one “non-infusion” day between each administration of custirsen (i.e. every other day) during the Loading Dose Period and between the third loading dose of custirsen and Day 1 of Cycle 1. The day prior to Day 1 of Cycle 1 (Day 0) is a “no treatment” day. There are no more than 4 days between the last loading dose and Day 1 of Cycle 1. A common schedule is to give the three loading doses of custirsen on Monday, Wednesday and Friday with Day 1, Cycle 1 starting on the following Monday. Up to nine days are allowed for completing the three loading doses prior to Day 0 to account for clinic visits, weekends, and holidays. Subjects receive each dose of custirsen as a 2 hour infusion.

[4] = test system: clusterin; settings: broad range of studies (Miyake et al. 2005); cited from earlier work
[5] = test system: NSCLC; settings: 2nd line setting, from reports; cited from earlier work
[6] = target: CYP3A4 (Homo sapiens, UniProt P08684); settings: cited from earlier work
[7] = cited from earlier work

Sequence of CYP3A4 (P08684 whole entry): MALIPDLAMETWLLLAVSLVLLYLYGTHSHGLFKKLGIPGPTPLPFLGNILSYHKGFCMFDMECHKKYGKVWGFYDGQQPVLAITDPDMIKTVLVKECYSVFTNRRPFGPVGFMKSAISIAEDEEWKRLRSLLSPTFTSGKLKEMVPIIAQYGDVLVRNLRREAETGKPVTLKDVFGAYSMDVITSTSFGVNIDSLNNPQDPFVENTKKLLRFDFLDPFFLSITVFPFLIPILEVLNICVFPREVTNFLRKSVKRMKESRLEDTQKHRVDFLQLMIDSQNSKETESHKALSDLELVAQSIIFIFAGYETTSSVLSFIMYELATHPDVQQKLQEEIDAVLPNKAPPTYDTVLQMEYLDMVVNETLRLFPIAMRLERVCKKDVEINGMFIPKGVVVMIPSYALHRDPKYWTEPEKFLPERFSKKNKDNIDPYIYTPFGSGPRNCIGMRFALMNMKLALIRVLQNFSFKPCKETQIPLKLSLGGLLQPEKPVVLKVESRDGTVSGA

Compound | sensitization of cancer cells to chemotherapy [1] | median survival time ([2]; baseline clusterin >71 μg/mL, N=20, early discontinuers removed) | median survival time ([2]; baseline clusterin >71 μg/mL, N=26 of all N=69 subjects) | median survival time ([2]; baseline clusterin ≦71 μg/mL, N=35, early discontinuers removed) | median survival time ([2]; baseline clusterin ≦71 μg/mL, N=45 of all N=69 subjects) | subjects with grade 1-2 constitutional symptoms (e.g., fever and chills) [3] | expression of clusterin [4] | median PFS [5] | CYP3A4 substrate [6] | patients with grade 4 neutropenia (<500 cells/mm^3) ([7]; 60 mg/m^2) | patients with grade 4 neutropenia (<500 cells/mm^3) ([7]; 100 mg/m^2) | patients with neutropenia (<2,000 neutrophils/mm^3) ([7]; 60-100 mg/m^2)
custirsen: anti-clusterin antisense oligonucleotide CAGCAGCAGAGTCTTCATCAT, phosphorothioate backbone, 2′-O-methoxyethyl at nucleotides 1-4 and 18-21, 5-methylcytosines at 1, 4, 19 (antisense e[5mC]*eA*eG*e[5mC]*dA*dG*dC*dA*dG*dA*dG*dT*dC*dT*dT*dC*dA*eT*e[5mC]*eA*eT; listed as Homo sapiens) | sensitizes | 12.2 months | 10.2 months | 28.7 months | 18.8 months | 50-60% | potently reduces | – | – | – | – | –
CC(=O)O[C@@]12CO[C@@H]1C[C@H](O)[C@@]1(C)C(=O)[C@H](O)C3=C(C)[C@@H](OC(=O)[C@H](O)[C@@H](NC(=O)OC(C)(C)C)c4ccccc4)C[C@@](O)([C@@H](OC(=O)c4ccccc4)[C@H]21)C3(C)C [Docetaxel] | – | – | – | – | – | – | – | about 3 months | substrate | 75% | 85% | virtually all
